Assay results published in ChEMBL document CHEMBL1177693, “Antimalarials from nature” (Bioorg Med Chem, 2009).
Values after ≈ are worked out from the molar mass of the structure shown.

test system: Plasmodium falciparum; assay: Antimalarial activity against Plasmodium falciparum; format: functional, organism-based; conditions: Plasmodium falciparum

Compound | IC50 | EC50
C[C@@]12C=C3OC[C@]4(C)C=CC(=O)[C@@](C)([C@@H]34)[C@@]13O[C@H]3C[C@@]1(C)[C@H](C3=CC(O)OC3=O)C[C@H]3O[C@@]321 (mixture of isomers) [TRICHIRUBINE A] | 0.3 µg/mL | –
O=C1OC(O)C(Cl)=C1Cl (stereo unspecified) [MUCOCHLORIC ACID] | 0.137 µg/mL | –
COc1cc2c(cc1O)CCN(C)[C@H]2Cc1ccc(Oc2c3c(cc(OC)c2OC)-c2c(OC)c(OC)c(O)c4c2[C@@H](C3)N(C)CC4)cc1 | 0.0242 µg/mL | –
COc1cc2c3c(c1O)Oc1ccc(cc1)C[C@@H]1c4c(cc(OC)c(O)c4Oc4ccc(cc4)C[C@H]3N(C)CC2)CCN1C [ISOCHONDODENDRINE] | 0.892 µM | –
C=C(C)C(O)Cc1cc(C(=O)/C=C/c2ccc(O)c(CC=C(C)C)c2)c(O)cc1O (stereo unspecified) [BARTERICIN A] | 2.15 µM | –
COC(=O)/C(=C/C[C@H]1[C@@]2(CC[C@H]3C(C)(C)CCC[C@@]31C)CO2)C1CO1 (stereo partly specified) | 4.97 µM | –
CC1=CC(=O)C[C@@H]2[C@@](C)(CC[C@H](C)CC(=O)O)[C@H](C)C(=O)C[C@@]12C | 4.3 µg/mL | –
C=C(CO)[C@@]12O[C@@H]1[C@@]1(C)C(=CC2=O)CC[C@@H](O)[C@@H]1C | – | 0.32 µg/mL (≈ 1.21 µM)
Cc1cc(O)c2c(c1)[C@@H]([C@H]1O[C@H](OC(=O)c3ccccc3)[C@@H](O)[C@@H](O)[C@@H]1O)c1cccc(O)c1C2=O | 2.4 µM | –
COc1ccc2cc1Oc1cc3c(cc1OC)CCN(C)[C@@H]3Cc1ccc(cc1)Oc1c(O)c(OC)cc3c1[C@@H](C2)N(C)CC3 | 0.353 µM | –
COc1cc2c(cc1O)[C@@H]1C[C@H](C[C@H]3CCCCN31)OC(=O)/C=C\c1ccc(O)c-2c1 | 2.8 µg/mL | –
Cc1c(O)cc2c3c1OC(C)(C)CC3c1ccc(O)c(O)c1CC2 (stereo not drawn) [DEMETHYLRACEMOSOL] | – | 2 µg/mL (≈ 6.13 µM)
C=C1C(=O)O[C@@H]2/C=C(/CO)C3=CC(=O)[C@@](C)(C[C@@H](OC(=O)/C(C)=C\C)[C@@H]12)O3 | 0.3 µg/mL | –
C=C(C)C(=O)O[C@@H]1C[C@@]2(C)OC(=CC2=O)/C(CO)=C\[C@H]2OC(=O)C(=C)[C@@H]21 | 1.2 µg/mL | –
COc1cc(O)c(C(=O)CCc2ccccc2)c(O)c1[C@H]1C=C(C)CC[C@@H]1C(C)C | 5.64 µM | –
CC[C@H](C)[C@@H]([C@@H](CC(=O)N1CCC[C@H]1[C@H](OC)[C@@H](C)C(=O)N[C@@H](Cc1ccccc1)c1nccs1)OC)N(C)C(=O)[C@@H](NC(=O)[C@H](C(C)C)N(C)C)C(C)C [DOLASTATIN-10] | 0.0001 µM | –

Now from value to compound, other results behind:

IC50 | Compound | EC50
17 µM | COc1c(O)cc2oc3cc(O)c(CC=C(C)C)c(O)c3c(=O)c2c1CC=C(C)C [MANGOSTIN] | –
15 µM | CCCCCCCCCCCCCCCC1CC(=O)NCCCNCCCCNCCCN1 (stereo unspecified) [BUDMUNCHIAMINE L5] | –
3.2 µg/mL | C=C1C([C@@]2(C)C=CC(=O)C(C)(C)[C@@H]2[C@H](OC(C)=O)C(=O)OC)CC[C@@]2(C)[C@H](c3ccoc3)OC(=O)C[C@]12O (stereo partly specified) [DOMESTICULIDE B] | –
1.5 µg/mL | COc1cc2c(=O)c3c(O)c(C/C=C(\C)CCC=C(C)C)c(O)cc3oc2cc1O [COWAXANTHONE] | –
42.3 µg/mL | CC1(C)C(=O)CC[C@]2(C)[C@H]3CC(O)[C@@H]4[C@@]5(C)CC[C@](O)(C(C)(C)O)[C@H]5[C@@H](O[C@H]5OC[C@@H](O)[C@@H](O)[C@@H]5O)C[C@@]4(C)[C@]3(C)CC[C@@H]12 (mixture of isomers) [GLINOSIDE A] | –
4.8 µg/mL | C=C[C@@]12COC(=O)C(=C)[C@@H]1[C@@H](O)[C@H](C(=C)C(=O)OC)[C@@H](OC(=O)C(=C)CO)C2 [VERNODALOL] | –
2.7 µg/mL | CC(C)=CCc1c(O)cc2oc3ccc4c(c3c(=O)c2c1O)C=CC(C)(C)O4 [CALOTHWAITESIXANTHONE] | –
24.3 µg/mL | CC(=O)O[C@@H]1C(=O)c2c(O)cc(O)cc2O[C@@H]1c1ccc(O)cc1 | –
14 µM | CCCCCCCCCCCCCC1CC(=O)NCCCNCCCCNCCCN1 (stereo unspecified) [BUDMUNCHIAMINE L4] | –
4.3 µg/mL | C=C1CC[C@@H]2[C@@](C)(COC(=O)/C=C/c3ccc(O)cc3)CCC[C@@]2(C)[C@@H]1CC[C@H](C)CC(=O)O | –
